The text below walks through data of patent publication US7462459B2, “LAT1 transporters expressed in blood brain barrier cells” (XenoPort, Inc., priority 2004, dated 2008).

Like-named read-outs stand apart in the source and are kept apart here.

Data set [1] has as its target T1, LAT1 (Homo sapiens, UniProt Q01650). As to conditions: cited from earlier work.
Target sequence in this assay (Q01650 whole entry, species assumed): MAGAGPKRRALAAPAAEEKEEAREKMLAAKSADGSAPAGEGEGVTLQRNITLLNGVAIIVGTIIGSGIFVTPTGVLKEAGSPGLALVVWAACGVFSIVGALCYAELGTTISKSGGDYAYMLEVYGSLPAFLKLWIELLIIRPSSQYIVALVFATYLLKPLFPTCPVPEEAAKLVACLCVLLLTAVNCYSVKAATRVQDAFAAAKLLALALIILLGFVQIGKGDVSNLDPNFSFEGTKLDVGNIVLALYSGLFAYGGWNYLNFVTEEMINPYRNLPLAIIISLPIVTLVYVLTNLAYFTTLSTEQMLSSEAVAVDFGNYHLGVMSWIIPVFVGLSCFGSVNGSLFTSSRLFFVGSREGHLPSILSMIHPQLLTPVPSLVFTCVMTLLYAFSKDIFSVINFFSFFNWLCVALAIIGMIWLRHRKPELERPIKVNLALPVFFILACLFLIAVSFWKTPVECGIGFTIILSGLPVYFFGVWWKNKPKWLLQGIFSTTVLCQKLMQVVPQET
Target sequence in this assay (P08195 102-630 partner, species assumed): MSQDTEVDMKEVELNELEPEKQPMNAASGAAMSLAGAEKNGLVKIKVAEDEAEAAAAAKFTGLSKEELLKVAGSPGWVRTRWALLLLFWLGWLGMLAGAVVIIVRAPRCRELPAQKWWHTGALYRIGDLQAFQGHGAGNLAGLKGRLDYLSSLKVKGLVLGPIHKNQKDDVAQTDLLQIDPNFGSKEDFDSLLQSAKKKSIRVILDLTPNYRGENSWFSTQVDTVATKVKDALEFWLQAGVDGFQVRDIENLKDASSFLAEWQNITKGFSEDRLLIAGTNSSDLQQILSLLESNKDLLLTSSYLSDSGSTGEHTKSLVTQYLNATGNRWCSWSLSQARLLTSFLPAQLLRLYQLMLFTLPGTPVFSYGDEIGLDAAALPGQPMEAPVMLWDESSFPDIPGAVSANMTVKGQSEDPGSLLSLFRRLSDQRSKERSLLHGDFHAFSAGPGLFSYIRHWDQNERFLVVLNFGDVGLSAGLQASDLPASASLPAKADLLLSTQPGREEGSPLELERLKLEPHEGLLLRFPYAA
For another data set, the target named is T2, LAT1 transporter (Homo sapiens, UniProt Q01650).
T2 construct: KB cells endogenously expressing LAT1; endogenous in cells; host or cells: KB cells
T2 sequence (Q01650 whole entry): as the sequence (Q01650 whole entry, species assumed) above
T2 sequence (P08195 102-630 partner): as the sequence (P08195 102-630 partner, species assumed) above
Briefly: KB cell competition assay with 14C-gabapentin. It counts as cell-based. The source says:
To increase the throughput of LAT1 compound screening, a mammalian cell assay was developed. Because LAT1 mRNA is expressed at detectable levels in many cancer cell lines, over 20 human cell lines were screened for LAT1 expression using quantitative PCR. Cell lines included A498, A549, ASPC, CALU, CAPAN, DLD, DU145, H69AR, HCT8, HEK, HELA, HEPG2, HL60, JAR, JUR, KB, LOVO, MCF7, PANC1, PC3, and SW48.
To determine whether a compound interacts with the LAT1 transporter, a competition-binding assay was developed. The assay measures how different concentrations of a test compound block the uptake of a radiolabeled substrates such as ^14C-L-dopa or ^14C-gabapentin. The half-maximal inhibitory concentration (IC50) for inhibition of transport of a substrate by a test compound is an indication of the affinity of the test compound for the LAT1 transporter. Competition binding studies were performed as follows. KB cells were plated in 96-well plates at 100,000 cells/well and incubated for 24 hours at 37° C. Radiolabeled ^14C-gabapentin (˜50,000 cpm/well) was added to each well in the presence and absence of various concentrations of test compound in duplicate or triplicate. Plates were incubated at room temperature for 20 min. Excess radiolabeled substrate was removed and cells were washed three times with a 96-well plate washer with cold assay buffer. Scintillation fluid was added to each well, the plates were sealed and counted in a 96-well plate-based scintillation counter. Data were graphed and analyzed using non-linear regression analysis with Prism Software (GraphPad, Inc., San Diego, Calif.).

Data set [2] concerns the target T3, hLAT1 (Homo sapiens, UniProt P08195+Q01650).
T3 construct: expressed in transfected cells
As to the kind of experiment: LAT1 competition uptake assay in HEK-TREx-LAT1-4F2hc cells with 3H-gabapentin. It counts as cell-based. The procedure: The plates were incubated at room temperature for 15 minutes.

The target in data set [3] is T3, hLAT1. As to the kind of experiment: LAT1 direct uptake assay in HEK-TREx-LAT1-4F2hc cells (LC-MS-MS). It counts as cell-based. As to conditions: read-out: Km or IC50, Direct Uptake. The procedure:
Four concentrations (bracketing the affinity as measured by competition assays) per compound were routinely tested.
Typically, four concentrations bracketing the IC50 were tested. The highest test concentration for each compound was made in an eppendorf tube and diluted into HBSS. The samples were robustly vortexed and centrifuged for 10 minutes at 13,200 rpm to spin down any precipitate. […] Three additional 2-fold dilutions were made in the subsequent rows (B-D or […]) in HBSS.
Alternatively, cells were washed manually with equivalent volumes using a multichannel pipettor.
The plate was incubated at room temperature for 10 minutes.
120 μl of the cell extract was removed from each well and transferred to a fresh 96-well v-bottom polypropylene plate. […] 10 μl of the 50 μM propranolol solution was added to each well of a fresh 96-well plate (a plate amenable for sampling in the LC-MS-MS).

In data set [4] the target is T1, LAT1. The settings on record: Literature; LAT1-expressing oocytes; cited from earlier work.
Target sequence in this assay (Q01650 whole entry, species assumed): as the sequence (Q01650 whole entry, species assumed) above
Target sequence in this assay (P08195 102-630 partner, species assumed): as the sequence (P08195 102-630 partner, species assumed) above
The target of data set [5] is T1, LAT1. As to the kind of experiment: KB cell direct uptake assay (LC-MS-MS). As to conditions: read-out: Km or IC50, Direct Uptake; KB cells; 5 min.
For data set [6], the target named is T1, LAT1. Briefly: Oocyte direct uptake assay (LC-MS-MS), oocytes expressing hLAT1 and 4F2hc. It counts as cell-based. Details: expressed in transfected cells; host or cells: Xenopus oocytes injected with cRNA. From the text: To assess transport function of a specific transporter protein, it can be desirable to clone the cDNA and express the protein in cells that have low endogenous transport activity. Human LAT1 was cloned by PCR, fully sequenced, and subcloned into plasmids that can be used for expression in mammalian cells or Xenopus oocytes. The co-subunit required for LAT1 function, 4F2HC (Genbank accession AB018010), was also cloned and sequenced. Unless otherwise noted, 4F2HC was also co-expressed in each heterologous system described in the example. […] For expression in Xenopus oocytes, in vitro LAT1 and 4F2HC cRNA was prepared and injected into defoliculated oocytes.
To measure directly the uptake of possible substrates, an oocyte uptake assay in which compounds are measured by mass spectroscopy was developed. To illustrate this approach, uptake assays of gabapentin and L-dopa were performed. Oocytes used in this experiment were injected with LAT1 cRNA and incubated at 16-18° C. until maximal transporter expression was reached. Oocytes from the same batch, which were not injected with cRNA, were used in the experiment to serve as a control. […] Following the incubation, the pools of oocytes were washed 4 times with 0.5% BSA ND96 buffer and separated into 2 oocyte subpools containing 4 oocytes each. Subpools were homogenized in 150 μl of ice cold 80% MeOH/H2O, and lysed manually with a P200 pipettor. Lysates were vortexed briefly before being spun in a 4° C. tabletop centrifuge at 13.2 krpm for 15 minutes. Approximately 110 μl of lysate was removed from the eppendorf tubes and placed in a 96-well plate. Lysates were analyzed for gabapentin and L-dopa by liquid chromatography-mass spectroscopy.
Samples were analyzed by LC-MS-MS as follows. […] Analyte fragmentation peaks were integrated using Analyst 1.2 quantitation software, and concentrations were calculated using a calibration curve of signals produced by known concentrations of the compound.
Target sequence in this assay (Q01650 whole entry): as the sequence (Q01650 whole entry, species assumed) above
Target sequence in this assay (as listed by the source partner): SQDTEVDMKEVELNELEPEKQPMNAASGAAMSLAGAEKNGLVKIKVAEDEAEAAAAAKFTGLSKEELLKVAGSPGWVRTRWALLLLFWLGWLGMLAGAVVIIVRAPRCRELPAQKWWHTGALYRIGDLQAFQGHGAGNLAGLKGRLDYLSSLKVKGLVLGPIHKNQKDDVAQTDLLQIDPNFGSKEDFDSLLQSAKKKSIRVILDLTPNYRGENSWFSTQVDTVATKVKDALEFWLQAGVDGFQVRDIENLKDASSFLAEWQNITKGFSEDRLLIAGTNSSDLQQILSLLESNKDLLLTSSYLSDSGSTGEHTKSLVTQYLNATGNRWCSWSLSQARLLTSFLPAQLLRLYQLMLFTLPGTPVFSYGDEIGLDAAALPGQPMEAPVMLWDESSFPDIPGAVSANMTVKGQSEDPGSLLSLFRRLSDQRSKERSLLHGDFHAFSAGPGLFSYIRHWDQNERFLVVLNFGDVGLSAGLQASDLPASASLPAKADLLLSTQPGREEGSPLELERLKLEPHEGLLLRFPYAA

The target of data set [7] is T1, LAT1. As to the kind of experiment: Radiolabel uptake into Xenopus oocytes expressing LAT1 and 4F2HC. The data set is classed as cell-based. Details: expressed in transfected cells; host or cells: Xenopus oocytes injected with cRNA. As to conditions: FIG. 2.
The next data set addresses PgP (Homo sapiens, UniProt P08183). Briefly: Cellular transwell monolayer efflux assay, MDCK cells with TREx-PgP.
Where [8] appears, read: KB cells, read-out: Km or IC50, Competition (14C-GP).
Where [9] appears, read: own data, read-out: Km or IC50, Direct Uptake.
Setting [10] is: 2.5 nM 3H-vinblastine, 250 μM verapamil.

Sequence of PgP (P08183 whole entry): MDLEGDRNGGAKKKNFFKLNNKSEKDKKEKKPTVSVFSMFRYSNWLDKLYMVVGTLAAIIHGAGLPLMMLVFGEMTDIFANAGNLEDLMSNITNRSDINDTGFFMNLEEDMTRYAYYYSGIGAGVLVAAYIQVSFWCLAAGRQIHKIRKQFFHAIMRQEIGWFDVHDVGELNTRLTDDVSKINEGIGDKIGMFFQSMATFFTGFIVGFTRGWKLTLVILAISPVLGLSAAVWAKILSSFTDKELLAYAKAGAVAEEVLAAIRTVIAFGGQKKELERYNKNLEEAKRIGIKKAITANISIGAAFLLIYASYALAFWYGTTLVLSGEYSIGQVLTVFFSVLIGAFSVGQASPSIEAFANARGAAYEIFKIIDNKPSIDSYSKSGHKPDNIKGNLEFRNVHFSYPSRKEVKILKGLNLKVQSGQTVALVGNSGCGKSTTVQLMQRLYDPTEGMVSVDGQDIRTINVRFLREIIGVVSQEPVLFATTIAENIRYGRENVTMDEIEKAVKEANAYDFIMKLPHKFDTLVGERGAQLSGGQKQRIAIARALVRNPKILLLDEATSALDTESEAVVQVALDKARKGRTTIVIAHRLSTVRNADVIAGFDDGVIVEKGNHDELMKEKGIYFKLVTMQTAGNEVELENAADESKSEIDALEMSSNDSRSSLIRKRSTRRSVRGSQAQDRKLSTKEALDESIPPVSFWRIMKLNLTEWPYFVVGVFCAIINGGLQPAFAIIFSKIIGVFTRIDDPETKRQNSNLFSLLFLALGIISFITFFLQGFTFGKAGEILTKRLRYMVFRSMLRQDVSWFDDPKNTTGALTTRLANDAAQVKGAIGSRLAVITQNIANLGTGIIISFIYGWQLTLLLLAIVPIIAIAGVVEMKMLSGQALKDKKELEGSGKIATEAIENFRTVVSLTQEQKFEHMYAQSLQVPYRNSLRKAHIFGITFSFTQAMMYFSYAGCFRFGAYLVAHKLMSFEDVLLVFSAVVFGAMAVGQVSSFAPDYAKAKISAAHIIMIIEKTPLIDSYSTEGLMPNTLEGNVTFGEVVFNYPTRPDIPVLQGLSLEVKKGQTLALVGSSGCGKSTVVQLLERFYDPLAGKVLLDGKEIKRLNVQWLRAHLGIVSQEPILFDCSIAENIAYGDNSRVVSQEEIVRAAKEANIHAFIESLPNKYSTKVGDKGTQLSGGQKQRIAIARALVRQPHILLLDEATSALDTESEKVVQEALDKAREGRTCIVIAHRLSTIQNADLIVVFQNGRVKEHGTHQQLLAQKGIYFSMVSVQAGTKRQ
T3 sequence (Q01650+P08195 fused): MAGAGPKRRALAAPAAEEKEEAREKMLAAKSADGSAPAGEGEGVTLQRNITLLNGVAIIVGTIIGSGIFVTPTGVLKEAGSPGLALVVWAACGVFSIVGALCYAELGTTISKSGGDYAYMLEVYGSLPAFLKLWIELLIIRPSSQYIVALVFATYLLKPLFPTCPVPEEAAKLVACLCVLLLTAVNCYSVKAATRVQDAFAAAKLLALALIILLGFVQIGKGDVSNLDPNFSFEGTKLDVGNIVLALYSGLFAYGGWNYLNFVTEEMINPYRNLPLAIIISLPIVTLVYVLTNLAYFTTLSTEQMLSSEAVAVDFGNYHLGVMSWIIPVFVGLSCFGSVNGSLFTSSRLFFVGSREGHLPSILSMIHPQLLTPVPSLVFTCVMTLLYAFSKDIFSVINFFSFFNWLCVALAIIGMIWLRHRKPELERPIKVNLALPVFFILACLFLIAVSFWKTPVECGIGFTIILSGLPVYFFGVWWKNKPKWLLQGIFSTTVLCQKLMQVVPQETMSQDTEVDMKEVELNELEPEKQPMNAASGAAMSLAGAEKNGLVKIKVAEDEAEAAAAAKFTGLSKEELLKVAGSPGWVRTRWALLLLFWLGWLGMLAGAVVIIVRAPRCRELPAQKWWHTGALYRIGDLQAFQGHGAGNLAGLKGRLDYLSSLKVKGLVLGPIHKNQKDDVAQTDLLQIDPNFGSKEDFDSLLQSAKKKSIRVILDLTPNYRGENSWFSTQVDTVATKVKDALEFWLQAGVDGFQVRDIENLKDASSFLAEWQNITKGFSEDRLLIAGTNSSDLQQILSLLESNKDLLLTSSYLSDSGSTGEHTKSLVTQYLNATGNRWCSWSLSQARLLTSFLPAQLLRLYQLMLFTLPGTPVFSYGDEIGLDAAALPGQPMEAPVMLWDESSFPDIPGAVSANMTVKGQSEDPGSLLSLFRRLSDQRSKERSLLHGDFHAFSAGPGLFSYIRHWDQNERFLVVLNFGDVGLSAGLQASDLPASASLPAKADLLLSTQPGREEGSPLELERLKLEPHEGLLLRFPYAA

Turning to `NCC(CC(=O)O)c1ccc(Cl)cc1` (stereo not shown) [Baclofen], the “Reported Affinity for LAT1” value at LAT1 [1] is recorded as 0.25 mM.
Consider `NC1(C(=O)O)CC2CCC1C2` (stereo not shown) [Bicyclohexane amino acid], for which, on LAT1 [1], the “Reported Affinity for LAT1” value is 0.18 mM.
The IC50 is the concentration that inhibits the measured activity by half. In general, Km refers to the substrate concentration at which the rate is half of its maximum. For the molecule `NCC1(CC(=O)O)CCCCC1` [Gabapentin], the figures for the IC50 at LAT1 transporter and on hLAT1 [2] were 210 µM and 400 µM, respectively. The Km at hLAT1 [3] is 500 µM; on LAT1 [5], 160 µM; on LAT1 [6] (read-out: Km or IC50, Direct Uptake, own data), 140 µM. The “Reported Affinity for LAT1” value at LAT1 [1] was 0.15 mM. For the same molecule, the “Km or IC50, Radiolabel Uptake or Competition” value on LAT1 [4] is 340 µM.
With `N[C@@H](Cc1ccc(O)c(O)c1)C(=O)O` [L-dopa], the IC50 at LAT1 transporter (setting [8]) was found to be 190 µM. For the same molecule, the Km at LAT1 [6] (setting [9]) came out at 66 µM. Moreover, the “3H-L-dopa uptake into oocytes expressing LAT1 and 4F2HC versus noninjected controls” value on LAT1 [7] is reported as “higher levels”.
As for `CC(C)C[C@H](N)C(=O)O` [Leucine], the “Reported Affinity for LAT1” value on LAT1 [1] is 0.22 mM.
As for `CSCC[C@H](N)C(=O)O` [Methionine], on LAT1 [1], the “Reported Affinity for LAT1” value is on record as 0.25 mM.
As for `N[C@@H](Cc1ccccc1)C(=O)O` [Phenylalanine], the IC50 on LAT1 transporter (setting [8]) came to 100 µM; on hLAT1 [2] (HEK-LAT1 cells, read-out: Km or IC50, Competition (3H-GP)) it was 160 µM. The Km at hLAT1 [3] came out at 140 µM; at LAT1 [5] it was 14.5 µM; at LAT1 [6] (setting [9]) it was 25 µM. Besides, the “Reported Affinity for LAT1” value at LAT1 [1] is given as 0.025 mM. At LAT1 [4], the “Km or IC50, Radiolabel Uptake or Competition” value is 12.5 to 14.2 µM.
For `N[C@@H](Cc1c[nH]c2ccccc12)C(=O)O` [Tryptophan], on LAT1 [1], the “Reported Affinity for LAT1” value was 0.35 mM.
Turning to `CC[C@]1(O)C[C@@H]2CN(CCc3c([nH]c4ccccc34)[C@@](C(=O)OC)(c3cc4c(cc3OC)N(C)[C@H]3[C@@](O)(C(=O)OC)[C@H](OC(C)=O)[C@]5(CC)C=CCN6CC[C@]43[C@@H]65)C2)C1` [vinblastine], the PgP substrate status entry at PgP is recorded as “is a substrate of PgP”. Besides, on PgP (setting [10]), the “Apical to basolateral transport in the presence of verapamil” value is “strongly increased” and the “Basolateral to apical transport in the presence of verapamil” value is reported as “strongly decreased”.
